Laboratory results published in ChEMBL document CHEMBL5352486, “Design, synthesis, in vitro - In vivo biological evaluation of novel thiazolopyrimidine compounds as antileishmanial agent with PTR1 inhibition” (Eur J Med Chem, 2023).
Converted amounts (≈) assume the structure as drawn. The source made the active and inactive calls. The rule behind the calls is not given here.

Key:
[1] = tested on: Leishmania infantum; test: Antileishmanial activity against Leishmania infantum infected in BALB/c mouse model of cutaneous leishmaniasis assessed as parasite growth in spleen at 50 mg/kg/day, ID administered for 21 days; format: functional, organism-based; settings: time 21.0 day
[2] = tested on: Leishmania infantum; test: Antileishmanial activity against Leishmania infantum infected in BALB/c mouse model of cutaneous leishmaniasis assessed as footpad lesion development at 50 mg/kg/day, ID administered for 21 days and measured after 6 weeks by Giemsa staining based analysis (reference value: 2.40 +/- 0.03); format: functional; settings: time 21 day
[3] = tested on: Leishmania infantum; test: Antileishmanial activity against Leishmania infantum infected in BALB/c mouse model of visceral leishmaniasis assessed as footpad lesion development at 50 mg/kg/day, IM administered for 21 days and measured after 10 weeks by Giemsa staining based analysis (reference value: 21.58 +/- 0.74); format: functional; settings: time 21 day
[4] = tested on: Leishmania infantum; test: Antileishmanial activity against Leishmania infantum MHOM/TN/1980/IPT1 incubated for 48 hrs by Neubauer hemocytometer analysis; format: functional, organism-based; settings: MHOM/TN/1980/IPT1, 48 h
[5] = (§1) Cytotoxicity against mouse RAW264.7 cells by alamar blue method; format: toxicity, cell-based; settings: mouse, RAW264.7 cells
[6] = tested on: RAW264.7; test: as §1; format: toxicity, cell-based; settings: raw264.7
[7] = tested on: Leishmania infantum; test: Antileishmanial activity against Leishmania infantum infected in BALB/c mouse model of visceral leishmaniasis assessed as footpad lesion development at 50 mg/kg/day, IM administered for 21 days and measured after 4 weeks by Giemsa staining based analysis (reference value: 28.01 +/- 0.65); format: functional; settings: time 21 day
[8] = tested on: Leishmania infantum; test: Antileishmanial activity against Leishmania infantum infected in BALB/c mouse model of visceral leishmaniasis assessed as footpad lesion development at 50 mg/kg/day, IM administered for 21 days and measured after 8 weeks by Giemsa staining based analysis (reference value: 23.84 +/- 0.93); format: functional; settings: time 21 day
[9] = tested on: Leishmania infantum; test: Antileishmanial activity against Leishmania infantum infected in BALB/c mouse model of visceral leishmaniasis assessed as parasite growth in spleen at 50 mg/kg/day, IM administered for 21 days; format: functional, organism-based; settings: time 21.0 day
[10] = tested on: Leishmania infantum; test: Antileishmanial activity against Leishmania infantum infected in BALB/c mouse model of visceral leishmaniasis assessed as footpad lesion development at 50 mg/kg/day, IM administered for 21 days and measured after 5 weeks by Giemsa staining based analysis (reference value: 27.04 +/- 0.65); format: functional; settings: time 21 day
[11] = tested on: Leishmania infantum; test: Antileishmanial activity against Leishmania infantum infected in BALB/c mouse model of visceral leishmaniasis assessed as footpad lesion development at 50 mg/kg/day, IM administered for 21 days and measured after 6 weeks by Giemsa staining based analysis (reference value: 25.81 +/- 0.84); format: functional; settings: time 21 day
[12] = tested on: Leishmania infantum; test: Antileishmanial activity against Leishmania infantum infected in BALB/c mouse model of visceral leishmaniasis assessed as footpad lesion development at 50 mg/kg/day, IM administered for 21 days and measured after 2 weeks by Giemsa staining based analysis (reference value: 29.73 +/- 0.63); format: functional; settings: time 21 day
[13] = tested on: Leishmania infantum; test: Antileishmanial activity against Leishmania infantum infected in BALB/c mouse model of cutaneous leishmaniasis assessed as footpad lesion development at 50 mg/kg/day, ID administered for 21 days and measured after 28 weeks by Giemsa staining based analysis (reference value: 4.92 +/- 0.01); format: functional; settings: time 21 day
[14] = tested on: Leishmania infantum; test: Antileishmanial activity against Leishmania infantum infected in BALB/c mouse model of visceral leishmaniasis assessed as footpad lesion development at 50 mg/kg/day, IM administered for 21 days and measured after 7 weeks by Giemsa staining based analysis (reference value: 24.85 +/- 0.88); format: functional; settings: time 21 day
[15] = tested on: Leishmania tropica; test: Antileishmanial activity against Leishmania tropica MHOM/A7/1974/SAF-K27 incubated for 48 hrs by Neubauer hemocytometer analysis; format: functional, organism-based; settings: MHOM/A7/1974/SAF-K27, 48 h
[16] = tested on: Leishmania infantum; test: Antileishmanial activity against Leishmania infantum infected in BALB/c mouse model of visceral leishmaniasis assessed as footpad lesion development at 50 mg/kg/day, IM administered for 21 days and measured after 11 weeks by Giemsa staining based analysis (reference value: 20.71 +/- 0.48); format: functional; settings: time 21 day
[17] = tested on: Leishmania tropica; test: Potency index, ratio of glucantime IC50 to test compound IC50 for antileishmanial activity against Leishmania tropica MHOM/A7/1974/SAF-K27; format: functional

IC50 [4] [µg/mL]	IC50 [15] [µg/mL]	Structure (SMILES)	Activity [1]	Activity [2]	Activity [3]	IC50 [5] [µg/mL]	log10 IC50 (µg/mL) [6]	Activity [7]	Activity [8]	Activity [9]	Activity [10]	Activity [11]	Activity [12]	Activity [13]	Activity [14]	Activity [16]	Ratio IC50 [17]
7.06 (≈ 18.6 µM)	7.14 (≈ 18.8 µM)	CN(C)c1ncc2nc(NC(=O)c3ccc(Cl)c([N+](=O)[O-])c3)sc2n1	Active	2.39	29.09	8.75 (≈ 23.1 µM)	0.94	27.83	27.42	Active	26.95	26.28	29.49	3.71	26.77	29.85	
8.16 (≈ 19.3 µM)	7.71 (≈ 18.2 µM)	CN1CCN(c2ncc3nc(NC(=O)c4ccc(Cl)c(Cl)c4)sc3n2)CC1	Active	2.41	21.12	16.4 (≈ 38.8 µM)	1.22	27.9	23.36	Active	26.63	25.72	29.53	4.83	24.43	20.13	
0.041 (≈ 0.0852 µM)	0.039 (≈ 0.081 µM)	CCOC(=O)N1CCN(c2ncc3nc(NC(=O)c4ccc(Cl)c(Cl)c4)sc3n2)CC1	Active	2.4	27.91	15 (≈ 31.2 µM)	1.18	27.85	26.84	inactive	26.78	25.71	29.54	3.8	26.22	28.55	200
